Measured values: US20160158317A1, “Antimicrobial Peptide Variants and Polynucleotides Encoding Same” (Adenium Biotech A/S, priority 2010, published 2016)
Where a SMILES comes first, the peptide text is derived from it. Bridges are numbered along the chain shown (N, C = ends).

Assay: Determination of the protein binding (90% serum, 30 kDa filter, HPLC)
Type: in vitro ADME
Conditions: serum
Description: Protein binding assays were performed as follows. The purified peptides were mixed with 90% serum and centrifuged through a 30 kDa filter. The ultra-filtrate and the non filtrated serum samples were quantified by HPLC measurements and the protein binding was subsequently calculated.

CC(C)[C@@H]1NC(=O)CNC(=O)[C@H](CC(N)=O)NC(=O)[C@H](CCCNC(=N)N)NC(=O)[C@H](Cc2ccc(O)cc2)NC(=O)[C@H](C(C)C)NC(=O)[C@@H]2CSSC[C@H](NC(=O)[C@H](CO)NC(=O)[C@H](CCCNC(=N)N)NC1=O)C(=O)N[C@@H](Cc1ccc(O)cc1)C(=O)N[C@@H](CCCNC(=N)N)C(=O)N[C@@H](CCCNC(=N)N)C(=O)N[C@H](C(=O)N[C@@H](CC(N)=O)C(=O)O)CSSC[C@H](NC(=O)[C@H](Cc1ccccc1)NC(=O)CN)C(=O)N[C@@H](Cc1c[nH]c3ccccc13)C(=O)N[C@@H](Cc1ccc(O)cc1)C(=O)N[C@@H](C(C)C)C(=O)N2 [compound 44] (H-GFCWYVCVYRNGVRSCYRRCN-OH; disulfide 3-20, 7-16)
fraction unbound: 0.15

CC(C)[C@@H]1NC(=O)CNC(=O)[C@H](CC(N)=O)NC(=O)[C@H](CCCNC(=N)N)NC(=O)[C@H](Cc2ccc(O)cc2)NC(=O)[C@H](C(C)C)NC(=O)[C@@H]2CSSC[C@H](NC(=O)[C@H]([C@@H](C)O)NC(=O)[C@H](CCCNC(=N)N)NC1=O)C(=O)N[C@@H](Cc1ccc(O)cc1)C(=O)N[C@@H](CCCNC(=N)N)C(=O)N[C@@H](CCCNC(=N)N)C(=O)N[C@H](C(=O)N[C@@H](CC(N)=O)C(=O)O)CSSC[C@H](NC(=O)[C@H](Cc1ccccc1)NC(=O)CN)C(=O)N[C@@H](Cc1c[nH]c3ccccc13)C(=O)N[C@@H](Cc1ccc(O)cc1)C(=O)N[C@@H](C(C)C)C(=O)N2 [compound 45] (H-GFCWYVCVYRNGVRTCYRRCN-OH; disulfide 3-20, 7-16)
fraction unbound: 0.02

CC(C)[C@@H]1NC(=O)CNC(=O)[C@H](CC(N)=O)NC(=O)[C@H](CCCNC(=N)N)NC(=O)[C@H](Cc2ccc(O)cc2)NC(=O)[C@H](C(C)C)NC(=O)[C@@H]2CSSC[C@H](NC(=O)[C@H](C(C)C)NC(=O)[C@H](CCCNC(=N)N)NC1=O)C(=O)N[C@@H](Cc1c[nH]cn1)C(=O)N[C@@H](CCCNC(=N)N)C(=O)N[C@@H](CCCNC(=N)N)C(=O)N[C@H](C(=O)N[C@@H](CC(N)=O)C(=O)O)CSSC[C@H](NC(=O)[C@H](Cc1ccccc1)NC(=O)CN)C(=O)N[C@@H](Cc1c[nH]c3ccccc13)C(=O)N[C@@H](Cc1ccc(O)cc1)C(=O)N[C@@H](C(C)C)C(=O)N2 [compound 46] (H-GFCWYVCVYRNGVRVCHRRCN-OH; disulfide 3-20, 7-16 (inferred); N-terminus and C-terminus assumed)
fraction unbound: 0.12

CC(C)[C@@H]1NC(=O)CNC(=O)[C@H](CC(N)=O)NC(=O)[C@H](CCCNC(=N)N)NC(=O)[C@H](Cc2ccc(O)cc2)NC(=O)[C@H](C(C)C)NC(=O)[C@@H]2CSSC[C@H](NC(=O)[C@H](C(C)C)NC(=O)[C@H](CCCNC(=N)N)NC1=O)C(=O)N[C@@H](CCCCN)C(=O)N[C@@H](CCCNC(=N)N)C(=O)N[C@@H](CCCNC(=N)N)C(=O)N[C@H](C(=O)N[C@@H](CC(N)=O)C(=O)O)CSSC[C@H](NC(=O)[C@H](Cc1ccccc1)NC(=O)CN)C(=O)N[C@@H](Cc1c[nH]c3ccccc13)C(=O)N[C@@H](Cc1ccc(O)cc1)C(=O)N[C@@H](C(C)C)C(=O)N2 [compound 47] (H-GFCWYVCVYRNGVRVCKRRCN-OH; disulfide 3-20, 7-16 (inferred); N-terminus and C-terminus assumed)
fraction unbound: 0.11

CC(C)[C@@H]1NC(=O)CNC(=O)[C@H](CC(N)=O)NC(=O)[C@H](CCCNC(=N)N)NC(=O)[C@H](Cc2ccc(O)cc2)NC(=O)[C@H](C(C)C)NC(=O)[C@@H]2CSSC[C@H](NC(=O)[C@H](C(C)C)NC(=O)[C@H](CCCNC(=N)N)NC1=O)C(=O)N[C@@H](CC(N)=O)C(=O)N[C@@H](CCCNC(=N)N)C(=O)N[C@@H](CCCNC(=N)N)C(=O)N[C@H](C(=O)N[C@@H](CC(N)=O)C(=O)O)CSSC[C@H](NC(=O)[C@H](Cc1ccccc1)NC(=O)CN)C(=O)N[C@@H](Cc1c[nH]c3ccccc13)C(=O)N[C@@H](Cc1ccc(O)cc1)C(=O)N[C@@H](C(C)C)C(=O)N2 [compound 48] (H-GFCWYVCVYRNGVRVCNRRCN-OH; disulfide 3-20, 7-16 (inferred); N-terminus and C-terminus assumed)
fraction unbound: 0.32

CC(C)[C@@H]1NC(=O)CNC(=O)[C@H](CC(N)=O)NC(=O)[C@H](CCCNC(=N)N)NC(=O)[C@H](Cc2ccc(O)cc2)NC(=O)[C@H](C(C)C)NC(=O)[C@@H]2CSSC[C@H](NC(=O)[C@H](C(C)C)NC(=O)[C@H](CCCNC(=N)N)NC1=O)C(=O)N[C@@H](Cc1ccc(O)cc1)C(=O)N[C@@H](CCCNC(=N)N)C(=O)N[C@@H](CCCNC(=N)N)C(=O)N[C@H](C(=O)N[C@@H](CO)C(=O)O)CSSC[C@H](NC(=O)[C@H](Cc1ccccc1)NC(=O)CN)C(=O)N[C@@H](Cc1c[nH]c3ccccc13)C(=O)N[C@@H](Cc1ccc(O)cc1)C(=O)N[C@@H](C(C)C)C(=O)N2 [compound 53] (H-GFCWYVCVYRNGVRVCYRRCS-OH; disulfide 3-20, 7-16 (inferred); N-terminus and C-terminus assumed)
fraction unbound: 0.01

CC(C)[C@@H]1NC(=O)CNC(=O)[C@H](CC(N)=O)NC(=O)[C@H](CCCNC(=N)N)NC(=O)[C@H](Cc2ccc(O)cc2)NC(=O)[C@H](C(C)C)NC(=O)[C@@H]2CSSC[C@H](NC(=O)[C@H](C(C)C)NC(=O)[C@H](CCCNC(=N)N)NC1=O)C(=O)N[C@@H](Cc1ccc(O)cc1)C(=O)N[C@@H](CCCNC(=N)N)C(=O)N[C@@H](CCCNC(=N)N)C(=O)N[C@H](C(=O)N[C@H](C(=O)O)[C@@H](C)O)CSSC[C@H](NC(=O)[C@H](Cc1ccccc1)NC(=O)CN)C(=O)N[C@@H](Cc1c[nH]c3ccccc13)C(=O)N[C@@H](Cc1ccc(O)cc1)C(=O)N[C@@H](C(C)C)C(=O)N2 [compound 54] (H-GFCWYVCVYRNGVRVCYRRCT-OH; disulfide 3-20, 7-16 (inferred); N-terminus and C-terminus assumed)
fraction unbound: 0.01

CC(C)[C@@H]1NC(=O)CNC(=O)[C@H](CC(N)=O)NC(=O)[C@H](CCCNC(=N)N)NC(=O)[C@H](Cc2ccc(O)cc2)NC(=O)[C@H](C(C)C)NC(=O)[C@@H]2CSSC[C@H](NC(=O)[C@H](C(C)C)NC(=O)[C@H](CCCNC(=N)N)NC1=O)C(=O)N[C@@H](CCCNC(=N)N)C(=O)N[C@@H](CCCNC(=N)N)C(=O)N[C@@H](CCCNC(=N)N)C(=O)N[C@H](C(=O)N[C@@H](CC(N)=O)C(=O)O)CSSC[C@H](NC(=O)[C@H](Cc1ccccc1)NC(=O)CN)C(=O)N[C@@H](Cc1ccccc1)C(=O)N[C@@H](Cc1ccc(O)cc1)C(=O)N[C@@H](C(C)C)C(=O)N2 [compound 56] (H-GFCFYVCVYRNGVRVCRRRCN-OH; disulfide 3-20, 7-16 (inferred); N-terminus and C-terminus assumed)
fraction unbound: 0.06

CC(C)[C@@H]1NC(=O)CNC(=O)[C@H](CC(N)=O)NC(=O)[C@H](CCCNC(=N)N)NC(=O)[C@H](Cc2ccc(O)cc2)NC(=O)[C@H](C(C)C)NC(=O)[C@@H]2CSSC[C@H](NC(=O)[C@H](C(C)C)NC(=O)[C@H](CCCNC(=N)N)NC1=O)C(=O)N[C@@H](Cc1ccc(O)cc1)C(=O)N[C@@H](CCCNC(=N)N)C(=O)N[C@@H](CCCNC(=N)N)C(=O)N[C@H](C(=O)N[C@@H](CC(N)=O)C(=O)O)CSSC[C@H](NC(=O)[C@H](Cc1ccccc1)NC(=O)CN)C(=O)NCC(=O)N[C@@H](Cc1c[nH]cn1)C(=O)N[C@@H](C(C)C)C(=O)N2 [compound 60] (H-GFCGHVCVYRNGVRVCYRRCN-OH; disulfide 3-20, 7-16 (inferred); N-terminus and C-terminus assumed)
fraction unbound: 0.36

CC(C)[C@@H]1NC(=O)CNC(=O)[C@H](CC(N)=O)NC(=O)[C@H](CCCNC(=N)N)NC(=O)[C@H](Cc2ccc(O)cc2)NC(=O)[C@H](C(C)C)NC(=O)[C@@H]2CSSC[C@H](NC(=O)[C@H](C(C)C)NC(=O)[C@H](CCCNC(=N)N)NC1=O)C(=O)N[C@@H](Cc1ccc(O)cc1)C(=O)N[C@@H](CCCNC(=N)N)C(=O)N[C@@H](CCCNC(=N)N)C(=O)N[C@H](C(=O)N[C@@H](CC(N)=O)C(=O)O)CSSC[C@H](NC(=O)[C@H](Cc1ccccc1)NC(=O)CN)C(=O)NCC(=O)N[C@@H](CCCNC(=N)N)C(=O)N[C@@H](C(C)C)C(=O)N2 [compound 61] (H-GFCGRVCVYRNGVRVCYRRCN-OH; disulfide 3-20, 7-16 (inferred); N-terminus and C-terminus assumed)
fraction unbound: 0.28

CC(C)[C@@H]1NC(=O)CNC(=O)[C@H](CC(N)=O)NC(=O)[C@H](CCCNC(=N)N)NC(=O)[C@H](Cc2ccc(O)cc2)NC(=O)[C@H](C(C)C)NC(=O)[C@@H]2CSSC[C@H](NC(=O)[C@H](C(C)C)NC(=O)[C@H](CCCNC(=N)N)NC1=O)C(=O)N[C@@H](CO)C(=O)N[C@@H](CCCNC(=N)N)C(=O)N[C@@H](CCCNC(=N)N)C(=O)N[C@H](C(=O)N[C@@H](CC(N)=O)C(=O)O)CSSC[C@H](NC(=O)[C@H](Cc1ccccc1)NC(=O)CN)C(=O)N[C@@H](Cc1c[nH]c3ccccc13)C(=O)N[C@@H](CCCCN)C(=O)N[C@@H](C(C)C)C(=O)N2 [compound 68] (H-GFCWKVCVYRNGVRVCSRRCN-OH; disulfide 3-20, 7-16 (inferred); N-terminus and C-terminus assumed)
fraction unbound: 0.13

CC(C)[C@@H]1NC(=O)CNC(=O)[C@H](CC(N)=O)NC(=O)[C@H](CCCNC(=N)N)NC(=O)[C@H](Cc2ccc(O)cc2)NC(=O)[C@H](C(C)C)NC(=O)[C@@H]2CSSC[C@H](NC(=O)[C@H](C(C)C)NC(=O)[C@H](CCCNC(=N)N)NC1=O)C(=O)N[C@@H](Cc1c[nH]cn1)C(=O)N[C@@H](CCCNC(=N)N)C(=O)N[C@@H](CCCNC(=N)N)C(=O)N[C@H](C(=O)N[C@@H](CC(N)=O)C(=O)O)CSSC[C@H](NC(=O)[C@H](Cc1ccccc1)NC(=O)CN)C(=O)N[C@@H](Cc1c[nH]c3ccccc13)C(=O)N[C@@H](CC(N)=O)C(=O)N[C@@H](C(C)C)C(=O)N2 [compound 70] (H-GFCWNVCVYRNGVRVCHRRCN-OH; disulfide 3-20, 7-16 (inferred); N-terminus and C-terminus assumed)
fraction unbound: 0.21
